Experimental data taken from patent US4265884A, “Therapeutically active polypeptides or acid addition salts thereof and a process for producing such compounds” (Nordisk Insulinlaboratorium, priority 1978, dated 1981).
Where a SMILES comes first, the peptide text is derived from it.

What was measured:
[1] = system: Langerhans's islets; experiment: In vitro glucose stimulated insulin secretion from isolated Langerhans's islets; format: cell-based; details: for glucose stimulated insulin secretion, percentage of the effect of 10 mmolar glucose alone: hydrochloride, with 10 mM glucose, isolated islets preincubated 24 hours at 37° C
Description: In vitro determination of the effect or the peptides on the glucose stimulated insulin secretion was carried out on Langerhans's islets isolated by collagenase technique and preincubated 24 hours at 37° C. Secretion tests were conducted with 10 mM of glucose and three peptide concentrations.
All peptides have been tested in the form of their hydrochlorides together with 10 mmolar glucose, and the value is calculated as a percentage of the effect of 10 mmolar glucose alone.

[2] = pharmacological dosages; cited from earlier work

Molecule	glucose stimulated insulin secretion, percentage of the effect of 10 mmolar glucose alone ([1]; peptide 5mM) [%]	glucose stimulated insulin secretion, percentage of the effect of 10 mmolar glucose alone ([1]; peptide 5 × 10^-1 mM) [%]	glucose stimulated insulin secretion, percentage of the effect of 10 mmolar glucose alone ([1]; peptide 5 × 10^-2 mM) [%]	effect on insulin liberation from isolated Langerhans's islets (in words) ([1]; same in vitro conditions as for the present peptides)	blood sugar level [2]	secretion of insulin [2]
COC(=O)[C@H](CC(C)C)NC(=O)[C@H](CCCNC(=N)N)NC(=O)[C@@H](N)CCC(N)=O [Peptide 1, glnargleuOMe, 2HCl] (H-Gln-Arg-Leu-OMe)	151	113	144	–	–	–
COC(=O)[C@H](CC(C)C)NC(=O)[C@H](CCCNC(=N)N)NC(=O)[C@H](CCC(N)=O)NC(=O)[C@@H](N)CC(C)C [Peptide 3, leuglnargleuOMe, 2HCl] (H-LQRL-OMe)	240	127	124	–	–	–
COC(=O)[C@H](CC(C)C)NC(=O)[C@H](CCCNC(=N)N)NC(=O)[C@H](CCC(N)=O)NC(=O)[C@H](CC(C)C)NC(=O)[C@@H](N)CCCNC(=N)N [Peptide 4, argleuglnargleuOMe, 3HCl] (H-RLQRL-OMe)	153	120	135	–	–	–
COC(=O)[C@H](CC(C)C)NC(=O)[C@H](CCCNC(=N)N)NC(=O)[C@H](CCC(N)=O)NC(=O)[C@H](CC(C)C)NC(=O)[C@H](CCCNC(=N)N)NC(=O)[C@H](C)NC(=O)[C@@H](N)CO [Peptide 5, seralaargleuglnargleuOMe, 3HCl] (H-SARLQRL-OMe)	268	140	–	–	–	–
COC(=O)[C@H](CC(C)C)NC(=O)[C@H](CCCNC(=N)N)NC(=O)[C@H](CCC(N)=O)NC(=O)[C@H](CC(C)C)NC(=O)[C@H](CCCNC(=N)N)NC(=O)[C@H](C)NC(=O)[C@H](CO)NC(=O)[C@@H](N)CC(=O)O [Peptide 6, aspseralaargleuglnargleuOMe, 3HCl] (H-DSARLQRL-OMe)	142	110	–	–	–	–
secretin	–	–	–	not been possible to make secretin affect the insulin liberation	without affecting the blood sugar level	potentiate the secretion of insulin
